# Literature values in patent publication US20050158845A1 (priority 2001, published 2005).
# Tested on: human hepatocyte and neuroblastoma cells
# Conditions: cited from earlier work
structure (smiles),measurement,value
CCOP(=O)(OCC)Oc1ccc([N+](=O)[O-])cc1 [paraoxon],effects on hepatocyte and neuroblastoma cell metabolism,opposite effects
CCOP(=S)(OCC)Oc1ccc([N+](=O)[O-])cc1 [parathion],effects on hepatocyte and neuroblastoma cell metabolism,opposite effects
